Test results published in patent US20260109707A1, “HETEROBIFUNCTIONAL COMPOUNDS AND METHODS OF TREATING DISEASE” (Halda Therapeutics OpCo. Inc., priority 2022, published 2026).

How the values were obtained:
[1] = tested on: T-Rex 293 cell line SC3 cells having increased expression of androgen receptor protein due to exposure to doxycycline; assay: Cellular growth inhibition assay, T-Rex 293 SC3 cells with doxycycline (CellTiter-Glo, 72 hours); type: cell-based; details: 72 h, T-Rex 293 SC3 cells with increased androgen receptor expression due to doxycycline (10 ng/mL)
Outline: (§1)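 Doxycycline (10 ng/mL) was either included or omitted to toggle wild-type androgen receptor expression in SC3 cells, a T-Rex 293 clone, grown in stripped-serum, phenol red-free medium. After 72 hours with compound, viable cells were quantified by CellTiter-Glo 2.0.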

[2] = tested on: T-Rex 293 cell line SC3 cells lacking increased expression of androgen receptor protein; assay: Cellular growth inhibition assay, T-Rex 293 SC3 cells without doxycycline (CellTiter-Glo, 72 hours); type: cell-based; details: 72 h, T-Rex 293 cell line SC3 cells not exposed to doxycycline (lacking increased androgen receptor expression)
Outline: as §1

VCaP cells = assay: Cellular growth inhibition assay for VCaP cells (CellTiter-Glo, 72 hours); type: cell-based, human; details: Homo sapiens, VCaP, 72 h
Outline: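 Luminescent viability signal after 72 h of compound exposure gave GI50 values by four-parameter nonlinear regression. Compounds were added in 0.5% DMSO to cells plated 24 h earlier at 5000/well in DMEM containing 10% FBS.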

T47D cells = assay: Cellular growth inhibition assay for T47D cells (CellTiter-Glo, 72 hours); type: cell-based, human; details: Homo sapiens, T47D, 72 h, 72 hours treatment
Outline: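 Luminescence from CellTiter-Glo 2.0 after 72 h of compound exposure gives the viability signal. Cells grew in insulin-supplemented (0.2 units/mL) DMEM with 10% FBS and were treated one day after seeding at 0.5% DMSO. GI50 values come from four-parameter nonlinear regression.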

Structure (SMILES) | GI50 (VCaP cells) [nM] | GI50 (T47D cells) [nM] | GI50 [1] [nM] | GI50 [2] [nM]
CCNC(=O)C[C@@H]1N=C(c2ccc(CCCOC3CCN(c4ccc(C(=O)N[C@H]5CC[C@H](Oc6ccc(C#N)c(Cl)c6)CC5)nn4)CC3)cc2)c2c(sc(C)c2C)-n2c(C)nnc21 [I-17] | < 500 | < 500 | < 500 | < 500
CCNC(=O)C[C@@H]1N=C(c2ccc(N3CC4(C3)CN(c3ccc(C(=O)N[C@H]5CC[C@H](Oc6ccc(C#N)c(Cl)c6)CC5)nn3)C4)cc2)c2c(sc(C)c2C)-n2c(C)nnc21 [I-24] | < 500 | < 500 | 500 to 1500 | 500 to 1500
CCNC(=O)C[C@@H]1N=C(c2ccc(OCC3CN(c4ccc(C(=O)N[C@H]5CC[C@H](Oc6ccc(C#N)c(Cl)c6)CC5)nn4)C3)cc2)c2c(sc(C)c2C)-n2c(C)nnc21 [I-29] | < 500 | < 500 | < 500 | 500 to 1500
CCNC(=O)C[C@@H]1N=C(c2ccc(OCCCN(C)c3ccc(C(=O)N[C@H]4CC[C@H](Oc5ccc(C#N)c(Cl)c5)CC4)nn3)cc2)c2c(sc(C)c2C)-n2c(C)nnc21 [I-48] | < 500 | 500 to 1500 | < 500 | 500 to 1500

More lines, main results first:

GI50 (VCaP cells) [nM] | GI50 (T47D cells) [nM] | Structure (SMILES) | GI50 [1] [nM] | GI50 [2] [nM]
< 500 | < 500 | Cc1sc2c(c1C)C(c1ccc(Cl)cc1)=N[C@@H](CC(=O)NCCOC1CCN(c3ccc(C(=O)N[C@H]4CC[C@H](Oc5ccc(C#N)c(Cl)c5)CC4)nn3)CC1)c1nnc(C)n1-2 [I-1, N-[4-(3-chloro-4-cyano-phenoxy)cyclohexyl]-6-[4-[2-[[2-[(9S)-7-(4-chlorophenyl)-4,5,13-trimethyl-3-thia-1,8,11,12-tetrazatricyclo[8.3.0.0^2,6]trideca-2(6),4,7,10,12-pentaen-9-yl]acetyl]amino]ethoxy]-1-piperidyl]pyridazine-3-carboxamide] | 500 to 1500 | 500 to 1500
< 500 | 1500 to 3000 | Cc1sc2c(c1C)C(c1ccc(Cl)cc1)=N[C@@H](CC(=O)NCCOCCOCCOC1CCN(c3ccc(C(=O)N[C@H]4CC[C@H](Oc5ccc(C#N)c(Cl)c5)CC4)nn3)CC1)c1nnc(C)n1-2 [I-2, N-[4-(3-chloro-4-cyano-phenoxy)cyclohexyl]-6-[4-[2-[2-[2-[[2-[(9S)-7-(4-chlorophenyl)-4,5,13-trimethyl-3-thia-1,8,11,12-tetrazatricyclo[8.3.0.0^2,6]trideca-2(6),4,7,10,12-pentaen-9-yl]acetyl]amino]ethoxy]ethoxy]ethoxy]-1-piperidyl]pyridazine-3-carboxamide] | < 500 | 500 to 1500
< 500 | < 500 | CCNC(=O)C[C@@H]1N=C(c2ccc(OCCOC3CCN(c4ccc(C(=O)N[C@H]5CC[C@H](Oc6ccc(C#N)c(Cl)c6)CC5)nn4)CC3)cc2)c2c(sc(C)c2C)-n2c(C)nnc21 [I-8] | < 500 | < 500
< 500 | < 500 | CCNC(=O)C[C@@H]1N=C(c2ccc(OCCOCCOC3CCN(c4ccc(C(=O)N[C@H]5CC[C@H](Oc6ccc(C#N)c(Cl)c6)CC5)nn4)CC3)cc2)c2c(sc(C)c2C)-n2c(C)nnc21 [I-10] | < 500 | 500 to 1500
< 500 | 500 to 1500 | CCNC(=O)C[C@@H]1N=C(c2ccc(CC3CCN(c4ccc(C(=O)N[C@H]5CC[C@H](Oc6ccc(C#N)c(Cl)c6)CC5)nn4)CC3)cc2)c2c(sc(C)c2C)-n2c(C)nnc21 [I-20] | < 500 | < 500
< 500 | – | CCNC(=O)C[C@@H]1N=C(c2ccc(N3CCC(OC4CCN(c5ccc(C(=O)N[C@H]6CC[C@H](Oc7ccc(C#N)c(Cl)c7)CC6)nn5)CC4)CC3)cc2)c2c(sc(C)c2C)-n2c(C)nnc21 [I-44] | < 500 | 500 to 1500
